Converted amounts (≈) assume the structure as drawn. Like-named read-outs stand apart in the source and are kept apart here.
Assays:
[1] = target: CYP450 3A4 (Homo sapiens, UniProt P08684); test: CYP450 panel, 3A4; conditions: 10 μM; for 3A4*: substrate midazolam; for 3A4^: substrate testosterone
[2] = target: T1, CYP450 1A2 (Homo sapiens, UniProt P05177); test: CYP450 panel, 1A2; type: in vitro ADME; conditions: 10 μM; substrate phenacetin
T1 sequence (P05177 1-516): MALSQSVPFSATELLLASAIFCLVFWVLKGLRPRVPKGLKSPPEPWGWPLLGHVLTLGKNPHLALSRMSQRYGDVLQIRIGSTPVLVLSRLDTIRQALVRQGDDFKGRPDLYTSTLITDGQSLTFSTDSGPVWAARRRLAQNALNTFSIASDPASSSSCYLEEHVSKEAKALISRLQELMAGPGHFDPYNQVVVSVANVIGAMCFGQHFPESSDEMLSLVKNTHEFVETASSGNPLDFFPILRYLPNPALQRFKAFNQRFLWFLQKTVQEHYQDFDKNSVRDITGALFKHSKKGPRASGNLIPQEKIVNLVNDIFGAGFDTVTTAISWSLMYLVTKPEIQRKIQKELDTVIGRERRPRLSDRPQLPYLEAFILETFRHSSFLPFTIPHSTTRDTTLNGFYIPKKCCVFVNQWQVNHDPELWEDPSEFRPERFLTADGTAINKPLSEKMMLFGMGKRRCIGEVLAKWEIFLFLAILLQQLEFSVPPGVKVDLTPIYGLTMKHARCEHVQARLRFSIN

[3] = system: Colon-26 KRAS-G12D tumor; test: Colon-26 model (KRAS G12D CRC): efficacy & safety; type: in vivo; conditions: Colon-26 KRAS-G12D in Balb/c
Protocol: Female athymic BALB/c nude or BALB/c mice (Beijing Vital River Laboratory Animal Technology Co., Ltd.), approximately 8-10 weeks old were used in these studies. Animals were maintained in individually vented cages on a 12-h light-dark cycle. Food and water were available ad libitum. The Colon-26 tumor cells were maintained in vitro with RPMI1640 medium supplemented with 10% fetal bovine serum at 37° C. in an atmosphere of 5% CO2 in air. The cells in exponential growth phase were harvested and quantitated by cell counter before tumor inoculation. Each mouse was inoculated subcutaneously in the right flank region with Colon-26 tumor cells (5×10^5) in 0.1 mL of PBS. Randomization was started when the mean tumor size reached approximately 125 mm3. A total of 84 tumor-bearing mice were enrolled in the study and allocated into 7 treatment groups (12 mice per group). Also 12 non-tumor-bearing mice were assigned as un-treated group.
Animals were treated with either vehicle (10% DMSO/90% [20% SBE-β-CD in saline], pH 5) or vehicle containing compounds at the indicated doses by gavage (p.o.) twice daily for approximately 28-42 days (BID x 28-42 p.o.), or to ethical endpoints (BWL>20%; Median Tumor Volume (MTV)>2000 mm3; Individual TV>3000 mm3; clinical signs of unwell). Clinical signs of unwell was characterized, but not limited to the following. Severe dehydration, hypothermia, abnormal/labored respiration, lethargy, obvious pain, diarrhea, skin lesions, neurological symptoms, impaired mobility (not able to eat or drink) due to significant ascites and enlarged abdomen, astasia, continuous prone or lateral position, signs of muscular atrophy, paralytic gait, clonic convulsions, tonic convulsions, persistent bleeding from body orifice. Dosing as well as tumor and body weight measurements were conducted in a Laminar Flow Cabinet.
Animals were checked daily for morbidity and mortality. During routine monitoring, the animals were checked for any effects of tumor growth and treatments on behavior such as mobility, food and water consumption, body weight gain/loss (body weights were measured twice per week after randomization), eye/hair matting and any other abnormalities. Mortality and observed clinical signs were recorded for individual animals in detail.
Tumor volumes were measured twice per week after randomization in two dimensions using a caliper, and the volume was expressed in mm3 using the formula: V=(L×W×W)/2, where V is tumor volume, L is tumor length (the longest tumor dimension) and W is tumor width (the longest tumor dimension perpendicular to L). Results were presented as the median tumor volume, expressed in mm3+/−interquartile range, of each group. Tumor Growth Inhibition; TGI %=[1−(Ti/(Ci)]×100; where Ti as the median tumor volume of the treatment group on the measurement day, Ci as the median tumor volume of control group at the measurement day.

[4] = eLogD (lipophilicity; pH 7.4); type: physicochemical
Protocol: Test compounds were dissolved in DMSO at a concentration of 10 mM and further diluted with methanol: water 1:1. Samples were analyzed using gradient HPLC with three different isocratic mobile phases of 0.25% octanol in methanol (60, 65 and 70%) and 20 mM MOPS buffer (pH 7.4) with decylamine. If needed, (for low ElogDoct compounds) the isocratic mobile phases were adjusted to e.g. 40, 45 and 50% methanol. Peaks were detected using a diode array at absorbance 220-320 nm.
Capacity factors data (k′ _=(tr−_t0)/t0) obtained at various amounts of methanol were extrapolated to 0% methanol and k′w values are determined using a linear procedure. ElogDoct (7.4) is calculated using a series of reference standards with known Log D values. Each experiment was performed in triplicate.

[5] = target: CYP450 2C19 (Homo sapiens, UniProt P33261); test: CYP450 panel, 2C19; conditions: 10 μM; substrate mephenytoin
[6] = Plasma stability, beagle dog; type: in vitro ADME; conditions: 2 μM
[7] = Plasma stability, human; type: in vitro ADME; conditions: 2 μM
[8] = Kinetic solubility (PBS pH 7.4; 4 hr); type: physicochemical
Protocol: The plates were shaken for 4 h at room temperature in an Eppendorf Thermomixer. After incubation, the plates were centrifuged for 20 minutes at 4680 rpm. From the supernatant, 150 uL was transferred to a new 96 well plate and 50 uL DMSO was added to ensure continued dissolution. Samples were measured on LC-UV at injection volumes of 1 and 8 uL. Peak areas were determined and compared to peak areas obtained using calibration curves of the test compounds in DMSO.

[9] = PAMPA (pH 7.4)
Protocol: Each stock solution was diluted to 50 uM in pH 7.4 Prisma HT buffer (pION) and 200 ul was added to each well of the donor plate in triplicate. The polyvinylidene fluoride (PVDF, 0.45 μm) filter membrane on the acceptor plate was coated with 5 ul gastrointestinal tract lipid formulation (GIT-0, pION) and to each well of the acceptor plate, 200 μl of acceptor sink buffer (pION) was added. The acceptor filter plate was then carefully placed on top of the donor plate to form a sandwich. The sandwich was incubated at 25° C. for 4 h without stirring. UV-vis spectra of the solutions in the blank, reference, acceptor and donor plates were measured using a microplate reader (Tecan Infinite 200PRO M Nano Plus). Permeability values were calculated using the PAMPA explorer software v. 3.8.0.2 (pION).

[10] = 10 mM PBS buffer, aqueous buffer, kinetic from dmso stock

Chain of CYP450 2C19 (P33261 whole entry): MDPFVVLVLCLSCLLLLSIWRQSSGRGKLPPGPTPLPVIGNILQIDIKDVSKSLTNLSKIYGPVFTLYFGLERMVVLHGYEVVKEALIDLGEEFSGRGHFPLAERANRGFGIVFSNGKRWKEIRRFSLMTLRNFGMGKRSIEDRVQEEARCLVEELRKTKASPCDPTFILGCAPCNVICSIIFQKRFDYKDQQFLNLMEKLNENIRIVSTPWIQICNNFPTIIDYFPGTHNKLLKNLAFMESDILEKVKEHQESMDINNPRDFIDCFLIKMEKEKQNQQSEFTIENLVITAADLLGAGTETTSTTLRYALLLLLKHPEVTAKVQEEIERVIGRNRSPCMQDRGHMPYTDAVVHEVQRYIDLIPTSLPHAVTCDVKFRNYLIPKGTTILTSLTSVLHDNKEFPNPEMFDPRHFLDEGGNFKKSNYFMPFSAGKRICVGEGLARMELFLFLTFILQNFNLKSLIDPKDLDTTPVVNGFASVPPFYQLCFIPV
Chain of CYP450 3A4 (P08684 whole entry): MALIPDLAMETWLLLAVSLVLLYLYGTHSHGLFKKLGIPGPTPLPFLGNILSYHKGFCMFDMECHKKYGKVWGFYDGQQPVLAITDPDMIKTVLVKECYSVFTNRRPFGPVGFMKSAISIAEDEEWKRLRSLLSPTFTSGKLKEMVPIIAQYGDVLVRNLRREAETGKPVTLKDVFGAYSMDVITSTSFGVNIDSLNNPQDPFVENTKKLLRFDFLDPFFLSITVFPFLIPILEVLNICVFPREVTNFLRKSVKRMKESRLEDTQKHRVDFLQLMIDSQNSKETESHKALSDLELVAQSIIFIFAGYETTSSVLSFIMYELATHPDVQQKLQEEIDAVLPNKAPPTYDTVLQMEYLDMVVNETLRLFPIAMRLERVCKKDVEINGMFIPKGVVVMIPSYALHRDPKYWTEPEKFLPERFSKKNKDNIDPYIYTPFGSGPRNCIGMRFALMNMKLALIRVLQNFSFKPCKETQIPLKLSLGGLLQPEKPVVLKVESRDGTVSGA

| Compound | 3A4* [1] | 3A4^ [1] | 1A2* [2] | TGI (Day 10) ([3]; 50 mg/kg BID po) | eLogD (lipophilicity; pH = 7.4) [4] | 2C19* [5] | Beagle Dog (% Reamining @2 hour) [6] | Human (% Reamining @2 hour) [7] | solubility kinetic at 4 h [8, 10] | PAMPA (pH = 7.4; Papp 10^−6 cm/s) [9] | BWL (Day 14) ([3]; 150 mg/kg BID po) | BWL (Day 17) ([3]; 150 mg/kg BID po) | TGI (Day 10) ([3]; 150 mg/kg BID po) | Papp at 4 h, 50 uM ([9]; PAMPA) | BWL (Day 14) ([3]; 50 mg/kg BID po) | BWL (Day 17) ([3]; 50 mg/kg BID po) | solubility kinetic at 4 h [8] |
| --- | --- | --- | --- | --- | --- | --- | --- | --- | --- | --- | --- | --- | --- | --- | --- | --- | --- |
| CNS(=O)(=O)Nc1nccc(Cc2c(C)c3ccc(Oc4ncccn4)cc3oc2=O)c1F [Reference 2, reference compound] | 16.6 | 15.7 | 0.8 | 61.6% | 3.6 | −0.9 | 99.8% | 91.1% | 36 µM (≈ 17 µg/mL) | 29 10^−6 cm/s | – | – | – | – | – | – | – |
| CNS(=O)(=O)Nc1cccc(Cc2c(CN(C)C)c3ccc(OC(=O)N(C)C)cc3oc2=O)c1F [Compound 9] | 16.3 | 26.8 | 4.8 | – | 3.0 | 8.2 | 96.8% | 95.1% | > 80 µM | – | 0% | 0% | 93.9% | 37 ×10⁻⁶ cm/s | – | – | – |
| Cn1cnc2c(F)c(Nc3ccc(Br)cc3Cl)c(C(=O)NOCCO)cc21 [Reference 1, Selumetinib, reference compound] | 25.9 | 21.4 | 8.3 | 60.0% | 3.6 | 13.9 | 100.4% | 98.1% | – | 29 10^−6 cm/s | – | – | – | – | 0% | −2% | 36 µM (≈ 16.5 µg/mL) |
